In patent US8791148B2, “Substituted benzimidazolone derivatives, medicaments comprising them and their use” (AbbVie Deutschland GmbH & Co. KG, priority 2006, dated 2014) one finds Ki data, which are given here for 20 molecules.

Some results are limits rather than exact numbers.

In this assay the target is T1, human vasopressin V1b receptor (Homo sapiens, UniProt P47901).
T1 construct: expressed in transfected cells; host or cells: CHO-K1 (cell line hV1b-3H2_CHO), membrane preparation
T1 sequence (P47901 1-424): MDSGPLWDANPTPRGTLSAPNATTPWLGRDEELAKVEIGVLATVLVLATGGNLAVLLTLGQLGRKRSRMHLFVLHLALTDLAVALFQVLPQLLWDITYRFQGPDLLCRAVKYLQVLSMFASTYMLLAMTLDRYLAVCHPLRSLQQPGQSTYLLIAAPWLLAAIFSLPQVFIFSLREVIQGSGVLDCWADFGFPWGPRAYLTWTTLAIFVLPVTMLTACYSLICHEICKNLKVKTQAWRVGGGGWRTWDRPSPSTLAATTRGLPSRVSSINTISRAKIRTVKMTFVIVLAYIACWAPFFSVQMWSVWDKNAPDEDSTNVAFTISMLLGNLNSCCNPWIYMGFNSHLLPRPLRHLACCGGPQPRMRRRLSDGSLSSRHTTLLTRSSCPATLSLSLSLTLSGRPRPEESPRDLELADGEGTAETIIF
Put plainly: Vasopressin V1b receptor binding assay. The following applies: membranes from CHO-K1 cells with stably expressed human V1b receptors; displacement of 1.5 nM 3H-AVP; read-out: V1b receptor affinity (affinity constant Ki). On the procedure:
Vasopressin V1b Receptor Binding Assay:
The test substances were dissolved in a concentration of 10^−2 M in DMSO and further diluted to 5×10^−4 M to 5×10^−9 M in DMSO. This series of DMSO predilutions was diluted 1:10 with assay buffer. The substance concentration was again diluted 1:5 in the assay mixture (2% DMSO in the mixture).
The membrane pellet was again homogenized and centrifuged as described and then taken up in 50 mM Tris-HCl, pH 7.4, homogenized and stored in aliquots frozen in liquid nitrogen at −190° C.
The incubation buffer was: 50 mM Tris, 10 mM MgCl2, 0.1% BSA, pH 7.4. […] The nonspecific binding was determined with 1 uM AVP (Bachem #H1780). All determinations were carried out as triplicate determinations. After incubation (60 minutes at room temperature), the free radioligand was removed by vacuum filtration (Skatron cell harvester 7000) through Wathman GF/B glass fiber filter mats, and the filters were transferred into scintillation vials. The liquid scintillation measurement took place in a Tricarb model 2000 or 2200CA instrument (Packard). Conversion of the measured cpm into dpm was carried out with the aid of a standard quench series.
The binding parameters were calculated by nonlinear regression in SAS.
The above assay was used to measure the affinities of the compounds of the invention for the human vasopressin V1b receptor and to determine the affinity constants (Ki).

As for `COc1ccc(S(=O)(=O)n2c(=O)n(CC(=O)N3CCN(c4ccncc4)CC3)c3cc(Cl)ccc32)cc1` [Example 24, 5-Chloro-1-(4-methoxybenzenesulfonyl)-3-[2-oxo-2-(4-pyridin-4-ylpiperazin-1-yl)-ethyl]-1,3-dihydrobenzimidazol-2-one], the Ki fell in the range of 100 to 500 nM.

Regarding `COc1ccc(S(=O)(=O)n2c(=O)n(CC(=O)N3CCN(c4ccncc4)CC3)c3cc(Cl)ccc32)c(OC)c1` [Example 25, 5-Chloro-1-(2,4-dimethoxybenzenesulfonyl)-3-[2-oxo-2-(4-pyridin-4-ylpiperazin-1-yl)-ethyl]-1,3-dihydrobenzimidazol-2-one], the Ki lay within 100 to 500 nM.

`N#Cc1ccc(S(=O)(=O)n2c(=O)n(CC(=O)N3CCN(c4ccncc4)CC3)c3cc(Cl)ccc32)cc1` [Example 26, 4-{5-Chloro-2-oxo-3-[2-oxo-2-(4-pyridin-4-ylpiperazin-1-yl)ethyl]-2,3-dihydrobenzimidazole-1-sulfonyl}benzonitrile]: the inhibition constant Ki fell in the range of 500 to 10000 nM.

Take `COc1ccc(S(=O)(=O)n2c(=O)n(C(Cc3ccccc3)C(=O)N3CCN(c4ccncc4)CC3)c3cc(Cl)ccc32)cc1` (centres unmarked) [Example 27, 3-[1-Benzyl-2-oxo-2-(4-pyridin-4-ylpiperazin-1-yl)ethyl]-5-chloro-1-(4-methoxybenzenesulfonyl)-1,3-dihydrobenzimidazol-2-one]: the Ki was 100 to 500 nM.

`COc1ccc(S(=O)(=O)n2c(=O)n(C(Cc3ccccc3)C(=O)N3CCN(c4ccncc4)CC3)c3cc(Cl)ccc32)c(OC)c1` (centres unmarked) [Example 28, 3-[1-Benzyl-2-oxo-2-(4-pyridin-4-ylpiperazin-1-yl)ethyl]-5-chloro-1-(2,4-dimethoxybenzenesulfonyl)-1,3-dihydrobenzimidazol-2-one]: the Ki is below 100 nM.

Take `N#Cc1ccc(S(=O)(=O)n2c(=O)n(C(Cc3ccccc3)C(=O)N3CCN(c4ccncc4)CC3)c3cc(Cl)ccc32)cc1` (centres unmarked) [Example 29, 4-{3-[1-Benzyl-2-oxo-2-(4-pyridin-4-ylpiperazin-1-yl)ethyl]-5-chloro-2-oxo-2,3-dihydrobenzimidazol-1-sulfonyl}-benzonitrile]: the Ki was 500 to 10000 nM.

As to `COc1ccc(S(=O)(=O)n2c(=O)n(C(C)C(=O)N3CCN(c4ccncc4)CC3)c3cc(Cl)ccc32)cc1` (centres unmarked) [Example 30, 5-Chloro-1-(4-methoxybenzenesulfonyl)-3-[1-methyl-2-oxo-2-(4-pyridin-4-ylpiperazin-1-yl)-ethyl]-1,3-dihydrobenzimidazol-2-one], the Ki was in the range of 500 to 10000 nM.

In the case of `COc1ccc(S(=O)(=O)n2c(=O)n(C(C)C(=O)N3CCN(c4ccncc4)CC3)c3cc(Cl)ccc32)c(OC)c1` (centres unmarked) [Example 31, 5-Chloro-1-(2,4-dimethoxybenzenesulfonyl)-3-[1-methyl-2-oxo-2-(4-pyridin-4-ylpiperazin-1-yl)ethyl]-1,3-dihydrobenzimidazol-2-one], the Ki lay in the range of 100 to 500 nM.

`CC(C(=O)N1CCN(c2ccncc2)CC1)n1c(=O)n(S(=O)(=O)c2ccc(C#N)cc2)c2ccc(Cl)cc21` (centres unmarked) [Example 32, 4-{5-Chloro-3-[1-methyl-2-oxo-2-(4-pyridin-4-ylpiperazin-1-yl)ethyl]-2-oxo-2,3-dihydrobenzimidazole-1-sulfonyl}benzonitrile]: the Ki fell in the range of 500 to 10000 nM.

Regarding `COc1ccc(C(C(=O)N2CCN(c3ccncc3)CC2)n2c(=O)n(S(=O)(=O)c3ccc(OC)cc3)c3ccc(Cl)cc32)cc1` (centres unmarked) [Example 33, 5-Chloro-1-(4-methoxybenzenesulfonyl)-3-[1-(4-methoxyphenyl)-2-oxo-2-(4-pyridin-4-ylpiperazin-1-yl)-ethyl]-1,3-dihydrobenzimidazol-2-one], the Ki was in the range of 100 to 500 nM.

As to `CN1CCC(N2CCN(C(=O)C(c3ccccc3)n3c(=O)n(S(=O)(=O)c4cccc5cccnc45)c4cc(Cl)c(Cl)cc43)CC2)CC1` (centres unmarked) [Example 35, 5,6-Dichloro-1-{2-[4-(1-methylpiperidin-4-yl)piperazin-1-yl]-2-oxo-1-phenylethyl}-3-(quinoline-8-sulfonyl)-1,3-dihydrobenzimidazol-2-one], the Ki is 500 to 10000 nM.

Regarding `COc1ccc(S(=O)(=O)n2c(=O)n(C(C(=O)N3CCN(C4CCN(C)CC4)CC3)c3ccccc3)c3cc(Cl)c(Cl)cc32)cc1` (centres unmarked) [Example 36, 5,6-Dichloro-1-(4-methoxybenzenesulfonyl)-3-{2-[4-(1-methylpiperidin-4-yl)piperazin-1-yl]-2-oxo-1-phenylethyl}-1,3-dihydrobenzimidazol-2-one], the Ki was in the range of 500 to 10000 nM.

For `COc1ccc(S(=O)(=O)n2c(=O)n(C(C(=O)N3CCN(C4CCN(C)CC4)CC3)c3ccccc3)c3ccc(Cl)cc32)c(OC)c1` (centres unmarked) [Example 37, 5-Chloro-3-(2,4-dimethoxybenzenesulfonyl)-1-{2-[4-(1-methylpiperidin-4-yl)piperazin-1-yl]-2-oxo-1-phenylethyl}-1,3-dihydrobenzimidazol-2-one], the Ki was in the range of 500 to 10000 nM.

Consider `COc1ccc(S(=O)(=O)n2c(=O)n(C(C(=O)N3CCN(C4CCN(C)CC4)CC3)c3ccccc3)c3ccc(Cl)cc32)cc1` (centres unmarked) [Example 38, 5-Chloro-3-(4-methoxybenzenesulfonyl)-1-{2-[4-(1-methylpiperidin-4-yl)piperazin-1-yl]-2-oxo-1-phenylethyl}-1,3-dihydrobenzimidazol-2-one], for which the inhibitory constant (Ki) fell in the range of 100 to 500 nM.

In the case of `CN1CCC(N2CCN(C(=O)C(c3ccccc3)n3c(=O)n(S(=O)(=O)c4ccc(C#N)cc4)c4cc(Cl)ccc43)CC2)CC1` (centres unmarked) [Example 39, 4-(6-Chloro-3-{2-[4-(1-methylpiperidin-4-yl)piperazin-1-yl]-2-oxo-1-phenylethyl}-2-oxo-2,3-dihydrobenzimidazole-1-sulfonyl)benzonitrile], the Ki was 500 to 10000 nM.

Turning to `O=C(C(c1ccccc1)n1c(=O)n(S(=O)(=O)c2cccc3cccnc23)c2cc(Cl)c(Cl)cc21)N1CCN(c2ccncc2)CC1` (centres unmarked) [Example 40, 5,6-Dichloro-1-[2-oxo-1-phenyl-2-(4-pyridin-4-ylpiperazin-1-yl)ethyl]-3-(quinoline-8-sulfonyl)-1,3-dihydrobenzimidazol-2-one], the Ki lay in the range of 500 to 10000 nM.

For `COc1ccc(S(=O)(=O)n2c(=O)n(C(C(=O)N3CCN(c4ccncc4)CC3)c3ccccc3)c3ccccc32)cc1` (centres unmarked) [Example 41, 1-(4-Methoxybenzenesulfonyl)-3-[2-oxo-1-phenyl-2-(4-pyridin-4-ylpiperazin-1-yl)ethyl]-1,3-dihydrobenzimidazol-2-one], the Ki was in the range of 500 to 10000 nM.

Turning to `O=C(C(c1ccccc1)n1c(=O)n(S(=O)(=O)c2ccc(OC(F)(F)F)cc2)c2ccc(Cl)cc21)N1CCN(c2ccncc2)CC1` (centres unmarked) [Example 42, 5-Chloro-3-[2-oxo-1-phenyl-2-(4-pyridin-4-ylpiperazin-1-yl)ethyl]-1-(4-trifluoromethoxybenzenesulfonyl)-1,3-dihydrobenzimidazol-2-one], the Ki lay within 500 to 10000 nM.

Regarding `COc1cc(C)ccc1S(=O)(=O)n1c(=O)n(C(C(=O)N2CCN(c3ccncc3)CC2)c2ccccc2)c2cc(Cl)ccc21` (centres unmarked) [Example 43, 5-Chloro-1-(2-methoxy-4-methyl-benzenesulfonyl)-3-[2-oxo-1-phenyl-2-(4-pyridin-4-ylpiperazin-1-yl)ethyl]-1,3-dihydrobenzimidazol-2-one], the Ki lay within 500 to 10000 nM.

For `O=C(C(c1ccccc1)n1c(=O)n(S(=O)(=O)c2cccs2)c2ccc(Cl)cc21)N1CCN(c2ccncc2)CC1` (centres unmarked) [Example 44, 5-Chloro-3-[2-oxo-1-phenyl-2-(4-pyridin-4-ylpiperazin-1-yl)ethyl]-1-(thiophene-2-sulfonyl)-1,3-dihydrobenzimidazol-2-one], the Ki is 100 to 500 nM.

For orientation: Ki means a dissociation constant, usually derived from enzyme kinetics or from competition with a known ligand.
